In patent publication US20040082665A1, “Method for treating stress or tension” (priority 2001, published 2004):

Tests used:
[1] = test system: patients; experiment: Randomised placebo-controlled double-blind study; ability to tolerate stress by Visual Analogue Scale (VAS); type: in vivo; conditions: tablet
Experimental: The effects of deramciclane were studied in a randomised placebo-controlled double-blind study. The subjects were randomly assigned to four parallel groups to receive one tablet twice daily (b.i.d) of a placebo, 5 mg (=10 mg/day), 15 mg (=30 mg/day), or 30 mg (=60 mg/day) deramciclane.
The efficacy of deramciclane on the ability to tolerate stress was analysed by the Visual Analogue Scale (VAS).

[2] = test system: patients; experiment: Randomised placebo-controlled double-blind parallel group 8-week study of tension; type: in vivo; conditions: after 8 weeks of treatment; for patients with tension scale number at least 4: placebo 48% at baseline, 12% after 8 weeks; for patients with moderate/severe or very severe other tension: present in all patients at baseline, placebo 43%; for patients with moderate/severe or very severe muscular tension: placebo 82% at baseline, 38% after 8 weeks
From the text: The efficacy and safety of deramciclane was studied in the treatment of tension as compared to placebo. A randomised plasebo-controlled double-blind parallel group 8-week study design was used.
Patients were asked if they had muscular tension (twitchings, stiffness, myoclonic jerks, grinding of teeth, unsteady voice or increased muscular tone) or other tension (feelings of tension, fatigability, startle response, moving to tears easily, trembling, feelings of restlessness or inability to relax). This tension was related to be not present, mild, moderate, severe or very severe.
In addition, patients' tension was also rated with the tension scale 1-6:
2—occasional feelings of edginess and ill defined discomfort
4—continuous feelings of inner tension
6—unrelated dread or anguish

CN(C)CCO[C@]1(c2ccccc2)C[C@H]2CC[C@]1(C)C2(C)C [deramciclane, (1R,2S,4R)-(−)-2-phenyl 2-(dimethylaminoethoxy)-1,7,7-trimethyl-bicyclo[2.2.1]heptane]
ability to tolerate stress better than in patients receiving placebo (VAS) ([1]; deramciclane 5 mg b.i.d (=10 mg/day)): 29% | ability to tolerate stress better than in patients receiving placebo (VAS) ([1]; deramciclane 15 mg b.i.d (=30 mg/day)): 54% | ability to tolerate stress better than in patients receiving placebo (VAS) ([1]; deramciclane 30 mg b.i.d. (=60 mg/day)): 43% | patients with tension scale number at least 4 ([2]; 15 mg bid deramciclane, baseline 35%): 5% | patients with moderate/severe or very severe other tension ([2]; 15 mg bid deramciclane): 25% | patients with moderate/severe or very severe muscular tension ([2]; 15 mg deramciclane bid, baseline 61%): 18% | patients with tension scale number at least 4 ([2]; 30 mg bid deramciclane, baseline 47%): 11% | patients with moderate/severe or very severe other tension ([2]; 30 mg bid deramciclane): 24% | patients with moderate/severe or very severe muscular tension ([2]; baseline 68%): 15%
